# Measurements published in patent US20250092030A1, “ENHANCERS OF PARTICULATE GUANYLYL CYCLASE RECEPTOR A” (Mayo Foundation for Medical Education and Research, priority 2023, published 2025).
# Where “and” joins values, the source holds several entries; their conditions need not be identical. Equal values may be shown once.
# Molecular target: T1, particulate guanylyl cyclase receptor A (pGC-A) (Homo sapiens, UniProt P16066)
# T1 construct: expressed in transfected cells; host or cells: HEK293
# T1 sequence (P16066 33-1061): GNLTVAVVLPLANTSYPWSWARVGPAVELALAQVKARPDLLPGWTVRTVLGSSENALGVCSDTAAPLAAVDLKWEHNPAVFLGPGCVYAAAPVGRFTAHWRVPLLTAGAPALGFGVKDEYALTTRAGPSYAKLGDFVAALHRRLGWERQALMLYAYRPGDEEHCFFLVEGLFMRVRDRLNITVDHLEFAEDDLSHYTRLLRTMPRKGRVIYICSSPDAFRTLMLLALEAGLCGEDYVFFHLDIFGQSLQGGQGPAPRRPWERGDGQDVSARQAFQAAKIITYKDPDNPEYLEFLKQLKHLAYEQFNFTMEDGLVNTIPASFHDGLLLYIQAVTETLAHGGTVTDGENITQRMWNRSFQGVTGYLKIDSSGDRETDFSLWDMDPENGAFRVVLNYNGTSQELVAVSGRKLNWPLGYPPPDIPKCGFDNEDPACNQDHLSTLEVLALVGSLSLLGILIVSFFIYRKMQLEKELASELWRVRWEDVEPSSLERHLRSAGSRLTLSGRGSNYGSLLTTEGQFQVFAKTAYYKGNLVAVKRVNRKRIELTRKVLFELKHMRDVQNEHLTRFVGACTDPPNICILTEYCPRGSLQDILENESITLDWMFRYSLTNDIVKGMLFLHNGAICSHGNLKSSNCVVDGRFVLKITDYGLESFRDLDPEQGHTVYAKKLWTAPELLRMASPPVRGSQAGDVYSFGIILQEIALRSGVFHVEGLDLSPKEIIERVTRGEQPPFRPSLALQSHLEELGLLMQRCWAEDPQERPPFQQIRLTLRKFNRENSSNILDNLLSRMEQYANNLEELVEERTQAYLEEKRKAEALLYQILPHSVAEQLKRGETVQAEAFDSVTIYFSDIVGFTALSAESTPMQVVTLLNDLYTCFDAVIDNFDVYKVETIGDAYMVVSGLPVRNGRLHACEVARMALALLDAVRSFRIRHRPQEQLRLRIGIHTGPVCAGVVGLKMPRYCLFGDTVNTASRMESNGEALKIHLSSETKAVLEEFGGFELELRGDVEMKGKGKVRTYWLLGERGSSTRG
# T1 sequence (P01160 124-151 partner limits assumed): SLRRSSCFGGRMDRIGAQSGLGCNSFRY
# Experiment: cGMP production by HTRF in HEK293 cells overexpressing pGC-A, with ANP
# Assay type: cell-based
# Conditions: HEK293, HEK293 cells overexpressing pGC-A; cGMP normalized to maximal amount produced by an EC80 concentration of ANP; read-out: Max efficacy
# Description: Assay: Generally, the assay monitors the production of cGMP, the second messenger generated by pGC-A, by Time-Resolved Florescence (HTRF) in HEK293 cells overexpressing the pGC-A. pGC-A suspension cells were stimulated in the presence of the test compound and an EC20 concentration of ANP. The quantity of cGMP was detected by competitive immunoassay using Eu^3+ cryptate-labeled anti-cGMP and d2-labeled cGMP and normalized to maximal amount produced by an EC80 concentration of ANP. Compound EC50 values were determined in the primary assay, in the presence or absence of ANP, to determine mode of action as positive modulators and tested for selectivity in the same assay platform but in HEK cells overexpressing the particulate guanylyl cyclase B receptor (pGC-B), of which CNP is the endogenous ligand.
# Assay details: 20 nL of 10 μM test compound in DMSO was added to columns 5-48 of 1536 well white high base screening plates (Corning, New York, NY) cells using 550 ECHO acoustic dispenser (Labcyte, San Jose, CA). Alpha-atrial natriuretic peptide (ANP) (Phoenix Pharmaceutics) was prepared as stock aliquots at 5 μM in PBS with 0.1% BSA. An approximate […] concentration of ANP ([…]) in assay buffer (HBSS containing 5 mM HEPES and 0.05% BSA) was added to columns 3-48 at a volume of 1 μL. Assay buffer only was added to column 1 and assay buffer containing a saturating concentration of ANP (5 nM) was added to column 2. HEK293 cells overexpressing GC-A were resuspended in assay media (OptimMem media containing 2% Heat-inactivated Fetal bovine serum and L-glutamine) at a density of 6×10^5 cells/mL and 2 μL were plated in screening plates (1200 cells/well) in suspension using a Bioraptr 2. Plates were spun at 1000 rpm for 1 min and incubated for 30 min at room temperature. 1.5 μL d2-labeled cGMP followed by 1.5 μL Eu^3+ cryptate-labeled anti-cGMP cGMP detection kit (CiBio; #62GM2PEC) prepared according to manufacturer's protocol were added to all wells using a Bioraptr 2 and TR-FRET signal was detected on an EnVision detector (PerkinElmer). Wells treated with 0.3% DMSO only serve as blank controls (column 1); wells treated with 0.3% DMSO and 5 nM ANP (columns 2) serve as positive controls and wells treated with 0.3% DMSO and […] ANP (columns 3-4) serve as negative controls.
row,Emax [%],SMILES
1,105,O=C(Nc1nc2c(F)cc(F)cc2s1)C1CCCN(CCNCCO)C1 (centres unmarked) [compound 240]

# Same assay, conditions: HEK293 cells overexpressing pGC-A; cGMP normalized to maximal amount produced by an EC80 concentration of ANP
row,SMILES,Max efficacy
1,CN1CCCC(N2CCCC(C(=O)Nc3nc4c(F)cc(F)cc4s3)C2)C1 (centres unmarked) [compound 070],71% and 85%
2,CN1CCC(N2CCCC(C(=O)Nc3nc4c(F)cc(F)cc4s3)C2)C1 (centres unmarked) [compound 069],89-98%

# The remaining lines, values ahead:
row,Max efficacy,SMILES
1,74% and 51%,CNCCN1CCCC(C(=O)Nc2nc3c(F)cc(F)cc3s2)C1 (centres unmarked) [compound 237]
2,62% and 87%,CN(C)CCN1CCCC(C(=O)Nc2nc3c(Br)cccc3s2)C1 (centres unmarked) [compound 226]

# Same assay, conditions: HEK293 cells overexpressing pGC-A; test compound plus EC20 concentration of ANP; cGMP by HTRF
row,SMILES,EC50
1,O=C(Nc1nc2c(F)cc(F)cc2s1)C1CCCN(C(=O)NCc2ccccc2)C1 (centres unmarked) [compound 279],> 5 µM
2,Cc1ccccc1-c1csc(NC(=O)C2CCCN(CCN(C)C)C2)n1 (centres unmarked) [compound 151],> 5 µM
3,CN(C)CCN1Cc2ccccc2C(C(=O)Nc2nc3c(F)cc(F)cc3s2)C1 (centres unmarked) [compound 059],> 5 µM
4,CN(C)CCN1CC(C(=O)Nc2nc3c(F)cc(F)cc3s2)Cc2ccccc21 (centres unmarked) [compound 057],> 5 µM
5,O=C(Nc1nc2c(F)cc(F)cc2s1)c1ccc(Cl)cc1 [compound 202],> 10 µM
6,CN1CCC(N2CCCCC2C(=O)Nc2nc3c(F)cc(F)cc3s2)C1 (centres unmarked) [compound 038],> 5 µM
7,COc1ccccc1C(=O)Nc1nc2c(F)cc(F)cc2s1 [compound 203],> 10 µM
8,CN(C)CCN[C@@H]1CCCC[C@@H]1C(=O)Nc1nc2c(F)cc(F)cc2s1 [compound 211],1.53 µM
9,O=C(Nc1nc2c(F)cc(F)cc2s1)C1CNCCN1C(=O)OCc1ccccc1 (centres unmarked) [compound 043],> 5 µM
10,CCNC(=O)N1CCCC(C(=O)Nc2nc3c(F)cc(F)cc3s2)C1 (centres unmarked) [compound 277],> 5 µM
11,COCCOc1ccc(-c2csc(NC(=O)C3CCCN(CCN(C)C)C3)n2)cc1 (centres unmarked) [compound 160],> 5 µM
12,CN1CCC(N2CCCC(C(=O)Nc3nc4c(F)cc(F)cc4s3)C2)C1 (centres unmarked) [compound 069],0.03 to 0.2 µM
13,O=C(Nc1nc2c(F)cc(F)cc2s1)C1CCCN(CCNCCO)C1 (centres unmarked) [compound 240],0.7 µM
14,COc1ccccc1-c1csc(NC(=O)C2CCCN(CCN(C)C)C2)n1 (centres unmarked) [compound 154],> 5 µM

# The next lines start with the values.
row,EC50,SMILES
1,> 10 µM,CN(C)CCN1CCCC(C(=O)Nc2nc3cc(Cl)ccc3s2)C1 (centres unmarked) [compound 011]
2,> 10 µM,Cc1cccc2sc(NC(=O)C3CCCN(CCN(C)C)C3)nc12 (centres unmarked) [compound 005]
3,> 5 µM,Cc1cccc(-c2csc(NC(=O)C3CCCN(CCN(C)C)C3)n2)c1 (centres unmarked) [compound 152]
4,> 5 µM,CN(C)CCN1CCCC(C(=O)Nc2nc3c(F)cc(-c4ccccc4)cc3s2)C1 (centres unmarked) [compound 022]
5,> 10 µM,CN(C)CCN1CCCC(C(=O)Nc2nc3ccc(F)cc3s2)C1 (centres unmarked) [compound 015]
6,> 5 µM,CN(C)CCN1CCCC(C(=O)Nc2nc3c(F)ccc(F)c3s2)C1 (centres unmarked) [compound 234]
7,> 5 µM,CN(C)CCN1CCCC(C(=O)Nc2nc(-c3ccc(Cl)cc3)cs2)C1 (centres unmarked) [compound 150]
8,0.16 µM and 0.9 µM,CN(C)CCN1CCCC(C(=O)Nc2nc3c(Br)cccc3s2)C1 (centres unmarked) [compound 226]
9,> 5 µM,CCOc1cc(F)c2nc(NC(=O)C3CCCN(CCN(C)C)C3)sc2c1 (centres unmarked) [compound 026]
10,> 10 µM,COc1cccc2sc(NC(=O)C3CCCN(CCN(C)C)C3)nc12 (centres unmarked) [compound 006]
